Test results: ChEMBL document CHEMBL1132023, “Synthesis and anticancer evaluation of certain alpha-methylene-gamma-(4-substituted phenyl)-gamma-butyrolactone bearing thymine, uracil, and 5-bromouracil” (1999)

How the values were obtained:
Type in all cases: functional
Details in all cases: Homo sapiens
U-251 = assay: In vitro inhibition of CNS Cancer U-251 cell lines
SK-OV-3 = assay: In vitro inhibition of Ovarian Cancer SK-OV-3 cell lines
SNB-19 [1] = assay: In vitro inhibition of CNS Cancer SNB-19 cell lines(least sensitive cell)
A549 = assay: In vitro inhibition of Non-Small Cell Lung Cancer A549/ATCC cell lines
NCI-H460 [2] = assay: In vitro inhibition of Non-Small Cell Lung Cancer NCI-H460 cell lines
MDA-MB-435 = assay: In vitro inhibition of Breast Cancer MDA-MB-435 cell lines
PC-3 = assay: In vitro inhibition of Prostate Cancer PC-3 cell lines
Hs-578T [3] = assay: In vitro inhibition of Breast Cancer Hs 578.T cell lines
DU-145 = assay: In vitro inhibition of Prostate Cancer DU-145 cell lines
TK-10 = assay: In vitro inhibition of Renal Cancer TK-10 cell lines
RPMI-8226 [4] = assay: In vitro inhibition of Leukemia RPMI-8226 cell lines
ACHN = assay: In vitro inhibition of Renal Cancer ACHN cell lines
HL-60 [5] = assay: In vitro inhibition of Leukemia HL-60(TB) cell lines(most sensitive cell)
COLO 205 [6] = assay: In vitro inhibition of Colon Cancer COLO 205 cell lines
IGROV-1 = assay: In vitro inhibition of Ovarian Cancer IGROV1 cell lines
SW-620 = assay: In vitro inhibition of Colon Cancer SW-620 cell lines
LOX IMVI = assay: In vitro inhibition of Melanoma LOX IM VI cell lines
Malme-3M = assay: In vitro inhibition of Melanoma MALME-3M cell lines
SNB-19 [7] = assay: In vitro inhibition of CNS Cancer SNB-19 cell lines
Hs-578T [8] = assay: In vitro inhibition of Breast Cancer Hs 578.T cell lines( least sensitive cell)
COLO 205 [9] = assay: In vitro inhibition of Colon Cancer COLO 205 cell lines( most sensitive cell)
HL-60 [10] = assay: In vitro inhibition of Leukemia HL-60(TB) cell lines
NCI-H460 [11] = assay: In vitro inhibition of Non-Small Cell Lung Cancer NCI-H460 cell lines(least sensitive cell)
RPMI-8226 [12] = assay: In vitro inhibition of Leukemia RPMI-8226 cell lines( most sensitive cell)
HL-60 [13] = assay: In vitro inhibition of Leukemia HL-60(TB) cell lines ( most sensitive cell)
SNB-19 [14] = assay: In vitro inhibition of CNS Cancer SNB-19 cell lines( least sensitive cell)
HL-60 [15] = assay: In vitro inhibition of Leukemia HL-60(TB) cell lines( most sensitive cell)
NCI-H460 [16] = assay: In vitro inhibition of Non-Small Cell Lung Cancer NCI-H460 cell lines( least sensitive cell)
Hs-578T [17] = assay: In vitro inhibition of Breast Cancer Hs 578.T cell lines(The least sensitive cell)

SMILES | GI50 (U-251) [µM] | GI50 (SK-OV-3) [µM] | GI50 (A549) [µM] | GI50 (NCI-H460 [2]) [µM] | GI50 (MDA-MB-435) [µM] | GI50 (PC-3) [µM] | GI50 (Hs-578T [3]) [µM] | GI50 (DU-145) [µM] | GI50 (TK-10) [µM] | GI50 (RPMI-8226 [4]) [µM] | GI50 (ACHN) [µM] | GI50 (COLO 205 [6]) [µM] | GI50 (IGROV-1) [µM] | GI50 (SW-620) [µM] | GI50 (LOX IMVI) [µM] | GI50 (Malme-3M) [µM] | GI50 (SNB-19 [7]) [µM] | GI50 (Hs-578T [8]) [µM] | GI50 (COLO 205 [9]) [µM] | GI50 (HL-60 [10]) [µM] | other results
C=C1CC(Cn2cc(Br)c(=O)[nH]c2=O)(c2ccc(-c3ccccc3)cc2)OC1=O (configuration not stated) | 5.75 | 6.03 | 6.17 | 10.5 | 1 | 1.26 | 4.79 | 1.07 | 0.126 | 0.129 | 2.51 | 0.355 | 1.2 | 0.282 | 0.851 | 1.55 |  |  |  |  | GI50 (SNB-19 [1]): 14.5 µM; GI50 (HL-60 [5]): 0.0457 µM
C=C1CC(Cn2ccc(=O)[nH]c2=O)(c2ccc(F)cc2)OC1=O (configuration not stated) | 15.5 | 15.1 | 17 | 13.8 | 10.7 | 16.2 |  | 15.1 | 14.5 | 5.37 | 13.2 |  | 13.2 | 4.9 | 6.03 | 7.59 | 14.8 | 20.4 | 3.02 | 3.72 | 
C=C1CC(Cn2cc(Br)c(=O)[nH]c2=O)(c2ccc(F)cc2)OC1=O (configuration not stated) | 8.51 | 16.6 |  |  | 4.07 | 11.7 | 14.5 | 16.2 | 17 |  | 4.47 | 2.24 | 12.9 | 2.75 | 3.39 | 4.57 | 19.5 |  |  | 1.74 | GI50 (NCI-H460 [11]): 20.9 µM; GI50 (RPMI-8226 [12]): 0.468 µM
C=C1CC(Cn2cc(C)c(=O)[nH]c2=O)(c2ccc(-c3ccccc3)cc2)OC1=O (configuration not stated) | 13.2 | 13.5 | 12.3 | 13.8 | 2 | 2.51 |  | 1.66 | 1.58 | 0.646 | 7.59 | 1.41 | 1.91 | 1.02 | 1.74 | 3.72 | 16.6 | 25.7 |  |  | GI50 (HL-60 [13]): 0.234 µM
C=C1CC(Cn2ccc(=O)[nH]c2=O)(c2ccc(-c3ccccc3)cc2)OC1=O (configuration not stated) | 10 | 10.5 | 10.7 | 10.2 | 0.49 | 1.32 | 7.41 | 0.2 | 0.955 | 0.214 | 2.29 | 0.174 | 0.708 | 0.17 | 0.209 | 1.58 |  |  |  |  | GI50 (SNB-19 [14]): 17.4 µM; GI50 (HL-60 [15]): 0.105 µM
C=C1CC(Cn2cc(C)c(=O)[nH]c2=O)(c2ccc(F)cc2)OC1=O (configuration not stated) | 11.5 | 16.2 | 17.8 |  | 5.62 | 9.12 |  | 7.59 | 4.57 | 3.55 | 3.55 |  | 5.5 | 3.63 | 4.27 | 3.55 | 14.8 |  | 1.58 | 2.57 | GI50 (NCI-H460 [16]): 19.1 µM; GI50 (Hs-578T [17]): 19.1 µM
